Measured values published in patent publication US9597332B2, “Sulfide alkyl compounds for HBV treatment” (NOVIRA THERAPEUTICS, INC., priority 2014, dated 2017).

System: HBV replication in HepG2-2.2.15 cells
Experiment: Inhibition of HBV replication dot-blot assay
Type: cell-based
Details: Hepatitis B virus, 144 h, 6 days, reduction in HBV DNA levels
Method: Compounds active in the HBV assembly assay are tested for their activity and toxicity in cellular assay. In the first anti-viral assay, the ability of compounds to inhibit HBV replication in an HBV-producing hepatoma cell line using the dot-blot method is evaluated.
(§1) Briefly, confluent monolayers of HepG2-2.2.15 cells are incubated with complete medium containing various concentrations of a test compound. Three days later, the culture medium is replaced with fresh medium containing the appropriately diluted test compound. Six days following the initial administration of the test compound, the cell culture supernatant is collected, and cell lysis is performed. The samples are applied onto Nylos membranes and DNA is immobilized to the membrane by UV cross-linking. After pre-hybridization, the HBV probe is added and the hybridization is performed overnight. The membranes are exposed to the KODAK films; antiviral activity is calculated from the reduction in HBV DNA levels (EC50). The EC50 for antiviral activity is calculated from the dose response curves of active compounds. Assay performance over time is monitored by the use of the standard positive control compounds ETV, BAY 41-4109, and HAP-1.
Selected compounds are tested for their activity and toxicity in cellular assay. In the first anti-viral assay, the ability of compounds to inhibit HBV replication in an HBV-producing hepatoma cell line using the dot-blot method is evaluated.
as §1, with “Confluent monolayers” for “Briefly, confluent monolayers”, “lysis was” for “lysis is”

| SMILES | EC50 |
| --- | --- |
| O=C(Nc1ccc(F)c(Cl)c1)c1ccc(F)c(S[C@H]2CC[C@H](O)C2)c1 (racemic) [Example 25, (±)-N-(3-Chloro-4-fluorophenyl)-4-fluoro-3-(((1S,3S)-3-hydroxycyclopentyl)thio)benzamide] | < 10 µM |
| O=C(Nc1cc(F)c(F)c(F)c1)c1ccc(F)c(S[C@H]2CCCC[C@H](O)C2)c1 (racemic) [Example 14B, (±)-4-Fluoro-3-(((1R,3R)-3-hydroxycycloheptyl)thio)-N-(3,4,5-trifluorophenyl)benzamide] | < 10 µM |
| O=C(Nc1cc(F)c(F)c(F)c1)c1ccc(F)c(S[C@H]2CCCC[C@@H](O)C2)c1 (racemic) [Example 14A, (±)-4-Fluoro-3-(((1S,3R)-3-hydroxycycloheptyl)thio)-N-(3,4,5-trifluorophenyl)benzamide] | < 10 µM |
| O=C(Nc1ccc(F)c(Cl)c1)c1ccc(F)c(SC2CCC[C@H](O)C2)c1 (mixture of isomers) [Example 21, (±)-N-(3-Chloro-4-fluorophenyl)-4-fluoro-3-(((1R,3R)-3-hydroxycyclohexyl)thio)benzamide] | < 10 µM |
